Results reported in US7125848B2, “Methods of treating non-inflammatory gastrointestinal tract disorders using Cav2.2 subunit calcium channel modulators” (Dynogen Pharmaceuticals, Inc., priority 2003, dated 2006).

Tested on: HVA calcium channel currents in GI tract afferent DRG neurons
Format: cell-based, rat

With “Omega-conotoxin GVIA (CKSHYPGSSCSHYPTSYNCCRSCNHYPYTKRCY; VARIANT (0)...(0) omega-conotoxin GVIA; listed as Conus geographus)” as the substance, how does the “calcium current amplitude as percentage of control amplitudes” value read?
The value was 59±4%.
